Publication PMC3586668 (PLoS ONE, 2013)
Like-named read-outs stand apart in the source and are kept apart here. One block for each compound: values may come before it.

Assays:
[1] = Polypeptide transport across 3-day Caco-2 monolayers (ELISA); assay type: in vitro ADME, Human; details: human, 3-day Caco-2, apical-to-basolateral, room temperature, gentle shaking, mean±SD n = 3, read-out: Apparent Permeability (Papp)
Experimental: (§1) Transport of three different macromolecular pharmaceutical peptides was studied across the Caco-2 monolayers at different loading concentrations. […] Different doses were selected for different polypeptides based upon the values reported in literature to not only approach therapeutic efficacy but also to provide a valid comparison with the results obtained in 21-day monolayer system. Polypeptides were incubated with Caco-2 monolayers for 5 hrs at room temperature with gentle shaking. TEER measurements were performed and samples were collected from basolateral chambers of the Caco-2 plates to determine total drug transport and apparent permeability at different concentrations.

Caco-2 monolayers [2] = experiment: as above; assay type: in vitro ADME, Human; details: 3-day Caco-2, apical-to-basolateral, room temperature, mean±SD n = 3; for Total amount transported to the basolateral side: 5 h
Experimental: as §1

rat jejunum = test system: rat jejunum; set-up: method as in 2 sources, ref 33 = [33]; PMID 21501675; doi:10.1016/j.ijpharm.2011.04.003; 33 Woitiski CB , Sarmento B , Carvalho RA , Neufeld RJ , Veiga F ( 2011 ) Facilitated nanoscale delivery of insulin across intestinal membrane models . Int J Pharm 412 : 123 – 131 . 21501675 10.1016/j ||| ref 36 = [36]; PMID 10227707; doi:10.1023/a:1018819012405; 36 Sinko PJ , Lee YH , Makhey V , Leesman GD , Sutyak JP , et al ( 1999 ) Biopharmaceutical approaches for developing and assessing oral peptide delivery strategies and systems: in vitro permeability; details: cited from earlier work
Caco-2 monolayers [3] = test system: Caco-2 monolayers
Experimental: (§2) Human colorectal adenocarcinoma Caco-2 cell line (HTB-37) obtained from American Type culture Collection (ATCC) (Manassas, VA, USA) was used for all experiments. Cell lines were maintained as per the provider's protocol. Cell culture was performed in Hyclone® DMEM high glucose medium (Thermo Fisher Scientific, Pittsburgh, PA, USA) supplemented with 50 IU/ml of penicillin, 50 mg/L of streptomycin, and 100 ml/L of fetal bovine serum at 37°C in a humidity-controlled 5% CO2 cell culture incubator. Cells were split at a ratio of 1∶3 after reaching 90% confluence. All transwell experiments were performed with cells between 5th–14th passages due to possible phenotypic differences between cells from high and low passage intervals. Cells were cultivated for at least 2 passages before seeding onto transwell filter supports to stabilize the cell phenotype 12].
(§3) Transwell experiments were performed with slight modifications to the protocols provided by the manufacturer (BD Biosciences, Bedford, MA, USA). For the development of the transwell assay system for permeability experiments, Caco-2 cells were seeded onto fibrillar collagen coated polyethylene terephthalate (PET) filter supports (1 µm pore size) of BD Biocoat™ HTS Caco-2 assay system (BD Biosciences, Bedford, MA, USA) according to manufacturer's protocol with slight modifications. Briefly, Caco-2 cells were seeded onto the filter supports at a concentration of 200,000 cells/insert (6.6×10^5 cells/cm^2) using basal seeding medium (with MITO+ serum extender) provided in the HTS system, and were incubated in cell culture incubator (37°C, 5% CO2). Cells were fed from both sides using the Multiwell feeder tray. After 24 hrs, the feeding medium was replaced with MITO+ serum extender supplemented Entero-STIM medium, and growing monolayers were incubated as described earlier. Upon incubation for 48–72 hrs, Caco-2 cells developed a tight junction monolayer, integrity of which was determined by TEER measurements.
(§4) The integrity of Caco-2 monolayer was determined by measuring the transepithelial electrical resistance (TEER) of the cell monolayer grown on filter supports using Millicell-ERS electrical resistance measuring system (Millipore, Bedford, MA) using chopstick electrodes. Briefly, the Caco-2 inserts were transferred to a 24-well culture plate with 1400 µl medium in the feeding well, and 500 µl in culture inserts. The electrodes were immersed in a way that shorter electrode was in the insert and longer electrode in the outer well. […] Based on the literature, a resistance reading of 150–200 Ω.cm^2 was considered as indicative of a confluent Caco-2 monolayer with tight junctions.
(§5) Briefly, cells were pre-conditioned with basal seeding medium for 30 minutes before starting the experiment at 37°C. […] The basolateral chamber consisted 1400 µl of the same growth medium as per manufacturer's protocol. The plates were incubated for 5 hrs at room temperature with gentle shaking (5 rocks/minute on a rocker, so as to mimic intestinal peristaltic movement). TEER measurements were performed at predetermined time intervals (0. 0.25, 0.5, 1, 2, 3, and 5 hrs). At the same time-points, 100 µl samples were withdrawn from the basolateral chamber to quantify the total amount of FITC-ins/sulforhodamine-B transported across the monolayer. The withdrawn sample was immediately replaced with equivalent amount of the experimental medium.
(§6) The apparent permeability coefficients (Papp) of all polypeptides were calculated using the following equation 19]: [drawing 1]
(§7) Where dQ/dt is the amount of solutes transported across the Caco-2 barrier in time dt, C0 is the solute concentration in apical compartment at time zero, and A is the cross-sectional area of the epithelium in contact with apical solution. Total percent drug transport was calculated by dividing the cumulative amount of molecules transported with the original loading concentrations.

Caco-2 monolayers [4] = experiment: Validation of 3-day Caco-2 transwell system: FITC-insulin and sulforhodamine-B transport (fluorescence); details: for Apparent Permeability (Papp) / % Transport in 5 hours / Cumulative amount transported to basolateral chamber: room temperature, fluorescence, mean±SD n = 3; for Apparent Permeability (Papp): gentle shaking; for Cumulative amount transported to basolateral chamber: after 5 h
Experimental: as §2, §3, §4, §5, §6, §7

[5] = apical loading 0.005 mg (5 µg/well)
[6] = apical loading 0.024 mg (24 µg/well)

Papp A→B at 5 h, 5 µg/well [1, 5]: 2 ± 0.07 ×10⁻⁶ cm/s
Papp A→B at 5 h, 24 µg/well [1, 6]: 1.5 ± 0.7 ×10⁻⁶ cm/s
Total amount transported to the basolateral side (Caco-2 monolayers [2]; apical loading 5 µg/well): 55 ± 2 ng
% Transport in 5 hours (Caco-2 monolayers [2]; [5]): 1.1±0.04%
% Transport in 5 hours (Caco-2 monolayers [2]; [6]): 0.8±0.4%
Total amount transported to the basolateral side (Caco-2 monolayers [2]; apical loading 24 µg/well): 192 ± 95 ng
Compound: CC(C)C[C@H](NC(=O)[C@H](CCCCN)NC(=O)CNC(=O)[C@H](CC(C)C)NC(=O)[C@@H](NC(=O)[C@@H]1CSSC[C@H](N)C(=O)N[C@@H](CO)C(=O)N[C@@H](CC(N)=O)C(=O)N[C@@H](CC(C)C)C(=O)N[C@@H](CO)C(=O)N[C@@H]([C@@H](C)O)C(=O)N1)C(C)C)C(=O)N[C@@H](CO)C(=O)N[C@@H](CCC(N)=O)C(=O)N[C@@H](CCC(=O)O)C(=O)N[C@@H](CC(C)C)C(=O)N[C@@H](Cc1c[nH]cn1)C(=O)N[C@@H](CCCCN)C(=O)N[C@@H](CC(C)C)C(=O)N[C@@H](CCC(N)=O)C(=O)N[C@H](C(=O)N[C@@H](Cc1ccc(O)cc1)C(=O)N1CCC[C@H]1C(=O)N[C@@H](CCCNC(=N)N)C(=O)N[C@H](C(=O)N[C@@H](CC(N)=O)C(=O)N[C@H](C(=O)NCC(=O)N[C@@H](CO)C(=O)NCC(=O)N[C@H](C(=O)N1CCC[C@H]1C(N)=O)[C@@H](C)O)[C@@H](C)O)[C@@H](C)O)[C@@H](C)O [Salmon Calcitonin]
Permeability through rat jejunum (rat jejunum): 1.9±0.5 ×10^−6 cm/sec

Compound: FITC-Insulin: fluorescein isothiocynate conjugated bovine insulin (Sigma Aldrich)
Apparent permeability coefficients (Papp), range over the loadings studied (Caco-2 monolayers [3]): 8.2±1.8-10.5±1.8
Effect on Caco-2 monolayer integrity during transport (Caco-2 monolayers [3]): without damaging the monolayer

Apparent Permeability (Papp) (Caco-2 monolayers [4]; 3-day Caco-2 (BD Biocoat HTS, serum-free), apical-to-basolateral, apical loading 0.05 mg/well in 500 µl basal seeding medium, 30 min pre-conditioning, 5 h): 5.0±2.9 10^−6 cm/s
% Transport in 5 hours (Caco-2 monolayers [4]; 3-day Caco-2, apical-to-basolateral, apical loading 0.05 mg/well, 5 h): 2.8±1.6%
Cumulative amount transported to basolateral chamber (Caco-2 monolayers [4]; 3-day Caco-2, apical-to-basolateral, apical loading 0.05 mg/well): 0.002 ± 0.0008 mg
Apparent Permeability (Papp) (Caco-2 monolayers [4]; 3-day Caco-2, apical-to-basolateral, apical loading 0.3 mg/well in 500 µl, 5 h): 5.3±0.8 10^−6 cm/s
% Transport in 5 hours (Caco-2 monolayers [4]; 3-day Caco-2, apical-to-basolateral, apical loading 0.3 mg/well, 5 h): 2.9±0.4%
Cumulative amount transported to basolateral chamber (Caco-2 monolayers [4]; 3-day Caco-2, apical-to-basolateral, apical loading 0.3 mg/well): 0.009 ± 0.001 mg
Apparent Permeability (Papp) (Caco-2 monolayers [4]; 3-day Caco-2, apical-to-basolateral, apical loading 0.6 mg/well in 500 µl, 5 h): 4.0±0.6 10^−6 cm/s
% Transport in 5 hours (Caco-2 monolayers [4]; 3-day Caco-2, apical-to-basolateral, apical loading 0.6 mg/well, 5 h): 2.3±0.4%
Cumulative amount transported to basolateral chamber (Caco-2 monolayers [4]; 3-day Caco-2, apical-to-basolateral, apical loading 0.6 mg/well): 0.01 ± 0.002 mg
Apparent Permeability (Papp) (Caco-2 monolayers [4]; 3-day Caco-2, apical-to-basolateral, apical loading […] in 500 µl, 5 h): 4.9±0.9 10^−6 cm/s
Effect on Caco-2 monolayer integrity during transport (Caco-2 monolayers [4]; 3-day Caco-2, different loading concentrations, 5 h, TEER): without damaging the monolayer
Compound: CCN(CC)c1ccc2c(-c3ccc(S(=O)(=O)O)cc3S(=O)(=O)[O-])c3ccc(=[N+](CC)CC)cc-3oc2c1 [Sulforhodamine-B, sulforhodamine B]
